{"source": "patent US10067124B2", "about": "“Immunoassay method for pro-gastrin-releasing peptide” (Abbott Laboratories, priority 2006, dated 2018)", "test_system": "serine protease such as thrombin", "assay": "Stabilization of ProGRP in serum by addition of PMSF (Example 2)", "format": "biochemical", "settings": "PMSF added to serum, room temperature storage", "protocol": "After PMSF (manufactured by Sigma-Aldrich Co.) was added to serum, ProGRP 31-98 antigen amino no acid synthesized by the Fmoc method was added thereto. After the mixture was stored at room temperature, the concentration of ProGRP was assayed using the Architect ProGRP. […] PMSF is a substance that is used to inactivate the activity of an enzyme of a serine protease such as thrombin and the presence of a protease such as thrombin can be considered to be the cause of ProGRP inactivation."}
{"smiles": "O=S(=O)(F)Cc1ccccc1", "note": "[PMSF, Phenylmethanesulfonyl Fluoride]", "values": [{"measurement": "effect on decrease in the activity of ProGRP in serum", "value": "significantly suppressed"}]}
